Test results published in patent US7989431B2, “2-propynyl adenosine analogs with modified 5′-ribose groups having A2A agonist activity” (University of Virginia Patent Foundation, priority 2004, dated 2011).
Read-outs that look alike come from different tables or passages of the source.

How the values were obtained:
[1] = target: T1, recombinant human A2A receptors (Homo sapiens, UniProt P29274); experiment: Radioligand competition binding, recombinant human A2A receptors; details: binding affinity; 125I-APE or 125I-ZM241385; Sf9 cell membranes
T1 construct: expressed in transfected cells; host or cells: Sf9 insect cells, viral infection; membranes
Description: (§1) Sf9 cells were cultured in Grace's medium supplemented with 10% fetal bovine serum, 2.5 μg/ml amphotericin B and 50 μg/ml gentamycin in an atmosphere of 50% N2/50% O2. Viral infection was performed at a density of 2.5×10^6 cells/mL with a multiplicity of infection of two for each virus used. Infected cells were harvested 3 days post-infection and washed twice in insect PBS (PBS pH 6.3). Cells were then resuspended in lysis buffer (20 mM HEPES pH 7.5, 150 mM NaCl, 3 mM MgCl2, 1 mM β-mercaptoethanol (BME), 5 μg/mL leupeptin, 5 μg/mL pepstatin A, 1 μg/mL aprotinin, and 0.1 mM PMSF) and snap frozen for storage at −80° C. Cells were thawed on ice, brought to 30 mL total volume in lysis buffer, and burst by N2 cavitation (600 psi for 20 minutes). A low-speed centrifugation was performed to remove any unlysed cells (1000×g for 10 minutes), followed by a high-speed centrifugation (17,000×g for 30 minutes). The pellet from the final centrifugation was homogenized in buffer containing 20 mM HEPES pH 8, 100mM NaCl, 1% glycerol, 2 μg/mL leupeptin, 2 μg/mL pepstatin A, 2 μg/mL Aprotinin, 0.1 mM PMSF, and 10 μM GDP using a small glass homogenizer followed by passage through a 26 gauge needle. Membranes were aliquoted, snap frozen in liquid N2, and stored at −80° C. Membranes from cells stably expressing the human A1 AR(CHO K1 cells) or A3 AR(HEK 293 cells) were prepared as described (Robeva et al., 1996).
(§2) Radioligand binding to recombinant human A2A receptors in Sf9 cell membranes was performed using either the radio labeled agonist, ^125I-APE (Luthin et al., 1995) or the radio labeled antagonist, ^125I-ZM241385 (^125I-ZM). To detect the high affinity, GTPγS-sensitive state of A1 and A3AR, we used the agonist, ^125I-ABA (Linden et al., 1985; Linden et al., 1993). Binding experiments were performed in triplicate with 5 μg (A2A) or 25 μg (A1 and A3) membrane protein in a total volume of 0.1 mL HE buffer (20 mM HEPES and 1 mM EDTA) with 1 U/mL adenosine deaminase and 5 mM MgCl2 with or without 50 μM GTPγS. Membranes were incubated with radioligands at room temperature for three hours (for agonists) or two hours (for antagonists) in Millipore Multiscreen® 96-well GF/C filter plates and assays were terminated by rapid filtration on a cell harvester (Brandel, Gaithersburg, Md.) followed by 4×150 μl washes over 30 seconds with ice cold 10 mM Tris-HCl, pH 7.4, 10 mM MgCl2. Nonspecific binding was measured in the presence of 50 μM NECA. Competition binding assays were performed as described (Robeva et al., 1996) using 0.5-1 nM ^125I-APE, ^125I-ZM241385, or ^125I-ABA. […]

[2] = target: T2, human A1 AR (Homo sapiens, UniProt P30542); experiment: Radioligand competition binding, human A1 AR; details: binding affinity; 125I-ABA; membranes of CHO K1 cells stably expressing human A1 AR
T2 construct: expressed in transfected cells; membranes
T2 sequence (P30542 1-326): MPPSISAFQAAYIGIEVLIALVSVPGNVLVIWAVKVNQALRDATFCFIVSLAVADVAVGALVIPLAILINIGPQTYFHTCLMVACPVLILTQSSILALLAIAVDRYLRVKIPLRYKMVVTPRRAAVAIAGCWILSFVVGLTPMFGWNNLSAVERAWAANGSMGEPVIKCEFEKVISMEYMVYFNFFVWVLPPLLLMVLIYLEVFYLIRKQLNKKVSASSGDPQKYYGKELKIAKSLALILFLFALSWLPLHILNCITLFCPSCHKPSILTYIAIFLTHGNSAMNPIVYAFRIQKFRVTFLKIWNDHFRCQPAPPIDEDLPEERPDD
Description: as §1, §2

[3] = system: human neutrophils; experiment: Human neutrophil oxidative activity, luminol-enhanced chemiluminescence; assay type: cell-based; details: fMLP-stimulated peak chemiluminescence
Description: Chemiluminescence Methods: Luminol enhanced chemiluminescence, a measure of neutrophil oxidative activity, is dependent upon both superoxide production and mobilization of the granule enzyme myeloperoxidase. The light is emitted from unstable high-energy oxygen species such as hypochlorous acid and singlet oxygen generated by activated neutrophils.
Purified human neutrophils (2×10^6/ml) suspended in Hanks balanced salt solution containing 0.1% human serum albumin (HA), adenosine deaminase (1 U/mL) and rolipram (100 nM) were incubated (37° C.) in a water bath for 15 min with or without rhTNF(10 U/ml). Following incubation 100 µL aliquots of the PMN were transferred to wells (White walled clear bottom 96 well tissue culture plates Costar #3670; 2 wells/condition) containing […] and luminol (final concentration 100 µM) with or without adenosine agonist (final agonist concentrations 0.01-1000 nM). The plate was incubated 5 min (37° C.) and then fMLP (501 in HA; final concentration […]) was added to all wells.
Peak chemiluminescence was determined with a Victor 1420 Multilabel Counter in the chemiluminescence mode using the Wallace Workstation software. Data are presented as peak chemiluminescence as percent of activity in the absence of an adenosine agonist. The EC50 was determined using PRISM software. All compounds were tested with PMNs from three separate donors.
f-met-leu-phe (fMLP), luminol, superoxide dismutase, cytochrome C, fibrinogen, adenosine deaminase, and trypan blue were obtained from Sigma Chemical. Ficoll-hypaque was purchased from ICN (Aurora, Ohio), and Cardinal Scientific (Santa Fe, N. Mex.) and Accurate Chemicals and Scientific (Westerbury, N.Y.). Endotoxin (lipopolysaccharide; E. coli K235) was from List Biologicals (Campbell, Calif.). Hanks balanced salt solution (HBSS), and limulus amebocyte lysate assay kit were from BioWittaker (Walkersville, Md.). Human serum albumin (HSA) was from Cutter Biological (Elkhart, Ind.). Recombinant human tumor necrosis factor-alpha was supplied by Dianippon Pharmaceutical Co. Ltd. (Osaka, Japan). ZM241385 (4-(2-[7-amino-2-(2-furyl) [1,2,4]triazolo[2,3-a][1,3,5]triazin-5-yl amino]ethyl)phenol) was a gift from Simon Poucher, Zeneca Pharmaceuticals, Cheshire, UK. Stock solutions (1 mM and 10 mM in DMSO) were made and stored at −20° C.
Purified neutrophils (−98% neutrophils and >95% viable by trypan blue exclusion) containing <1 platelet per 5 neutrophils and <50 pg/ml endotoxin (limulus amebocyte lysate assay) were obtained from normal heparinized (10 U/ml) venous blood by a one step Ficoll-hypaque separation procedure (A. Ferrante et al., J. Immunol. Meth., 36, 109 (1980)).
Luminol-enhanced chemiluminescence, a measure of neutrophil oxidative activity, is dependent upon both superoxide production and mobilization of the lysosomal granule enzyme myeloperoxidase. The light is emitted from unstable high-energy oxygen species generated by activated neutrophils. Purified neutrophils (5-10×10^5/ml) were incubated in Hanks balanced salt solution containing 0.1% human serum albumin (1 ml) with the tested A2A agonist with or without rolipram and with or without tumor necrosis factor-alpha (1 U/ml) for 30 minutes at 37° C. in a shaking water bath. Then luminol (1×10^−4 M) enhanced f-met-leu-phe (1 mcM) stimulated chemiluminescence was read with a Chronologo Photometer (Crono-log Corp., Havertown, Pa.) at 37° C. for 2-4 minutes. Chemiluminescence is reported as relative peak light emitted (=height of the curve) compared to samples with tumor necrosis factor-alpha and without agonist or rolipram.

[4] = target: T3, A3 AR (Homo sapiens, UniProt P0DMS8); experiment: Radioligand competition binding, human A3 AR; details: binding affinity; 125I-ABA; membranes of HEK 293 cells stably expressing human A3 AR
T3 construct: expressed in transfected cells; membranes
T3 sequence (P0DMS8 1-318): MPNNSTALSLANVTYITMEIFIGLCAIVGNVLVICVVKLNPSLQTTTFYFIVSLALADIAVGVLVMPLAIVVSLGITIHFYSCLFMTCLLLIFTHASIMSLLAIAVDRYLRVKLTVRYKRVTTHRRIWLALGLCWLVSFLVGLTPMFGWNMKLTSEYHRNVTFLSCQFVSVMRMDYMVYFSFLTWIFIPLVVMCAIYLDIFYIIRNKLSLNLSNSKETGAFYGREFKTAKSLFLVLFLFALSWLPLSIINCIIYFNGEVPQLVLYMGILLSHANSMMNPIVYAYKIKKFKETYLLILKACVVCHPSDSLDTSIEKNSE
Description: as §1, §2

[5] = human neutrophil experiment with Rolipram, read-out: Functional + Roli
[6] = human neutrophil experiment without Rolipram, read-out: Functional

T1 sequence (P29274 whole entry): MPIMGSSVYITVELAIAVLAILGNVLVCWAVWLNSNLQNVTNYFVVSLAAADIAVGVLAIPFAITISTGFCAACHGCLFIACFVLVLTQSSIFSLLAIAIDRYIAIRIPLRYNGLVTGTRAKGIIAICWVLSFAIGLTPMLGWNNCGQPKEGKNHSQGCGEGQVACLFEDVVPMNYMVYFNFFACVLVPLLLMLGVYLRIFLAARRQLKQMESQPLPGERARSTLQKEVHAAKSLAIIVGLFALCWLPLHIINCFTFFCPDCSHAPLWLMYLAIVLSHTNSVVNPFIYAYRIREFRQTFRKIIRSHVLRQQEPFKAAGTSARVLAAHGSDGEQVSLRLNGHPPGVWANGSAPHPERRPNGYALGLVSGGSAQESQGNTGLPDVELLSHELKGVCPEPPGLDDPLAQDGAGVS

Ki [1]	Ki [2]	EC50 [3, 5]	EC50 [3, 6]	Ki [4]	SMILES
0.58 nM	32 nM	0.2 nM	2 nM	34 nM	COC(=O)C1CCC(CC#Cc2nc(N)c3ncn([C@@H]4O[C@H](C(=O)NC5CC5)C(O)C4O)c3n2)CC1 (stereo in doubt) [Example 1, 4-{3-[6-Amino-9-(5-cyclopropylcarbamoyl-3,4-dihydroxy-tetrahydro-furan-2-yl)-9H-purin-2-yl]-prop-2-ynyl}-cyclohexanecarboxylic acid methyl ester]
0.6 nM	33 nM	0.2 nM	2 nM	45 nM	Nc1nc(I)nc2c1ncn2[C@@H]1O[C@H](C(=O)NC2CC2)C(O)C1O (stereo in doubt) [Example 4, 5-(6-Amino-2-iodo-purin-9-yl)-3,4-dihydroxy-tetrahydro-furan-2-carboxylic acid cyclopropylamide]
0.7 nM	57 nM	0.2 nM	2 nM	247 nM	COC(=O)N1CCC(CC#Cc2nc(N)c3ncn([C@@H]4O[C@H](C(=O)NC5CC5)C(O)C4O)c3n2)CC1 (stereo in doubt) [Example 2, 4-{3-[6-Amino-9-(5-cyclopropylcarbamoyl-3,4-dihydroxy-tetrahydro-furan-2-yl)-9H-purin-2-yl]-prop-2-ynyl}-piperidine-1-carboxylic acid methyl ester]
0.5 nM	1.5 nM	0.04 nM	0.3 nM	3 nM	C[C@@H]1CCC[C@@](O)(C#Cc2nc(N)c3ncn([C@@H]4O[C@H](C(=O)NC5CC5)C(O)C4O)c3n2)C1 (stereo in doubt) [Example 3, 5-[6-Amino-2-(1-hydroxy-3-methyl-cyclohexylethynyl)-purin-9-yl]-3,4-dihydroxy-tetrahydro-furan-2-carboxylic acid cyclopropylamide]
